Our source for the IC50 values is patent publication US20260216347A1, “Substituted Imidazo-Based Compounds as Ligand Directed Degraders of IRAK3” (Celgene Corporation, priority 2022, published 2026).

As a reminder, the IC50 is the concentration that inhibits the measured activity by half. Higher therefore signals a need for much substance.

Each structure is given as a SMILES string.

The target in this assay is T1, IRAK3 (Homo sapiens, UniProt Q9Y616).
T1 construct: IRAK Endogenous HTRF Degradation Assay; endogenous in cells
T1 sequence (Q9Y616 1-596): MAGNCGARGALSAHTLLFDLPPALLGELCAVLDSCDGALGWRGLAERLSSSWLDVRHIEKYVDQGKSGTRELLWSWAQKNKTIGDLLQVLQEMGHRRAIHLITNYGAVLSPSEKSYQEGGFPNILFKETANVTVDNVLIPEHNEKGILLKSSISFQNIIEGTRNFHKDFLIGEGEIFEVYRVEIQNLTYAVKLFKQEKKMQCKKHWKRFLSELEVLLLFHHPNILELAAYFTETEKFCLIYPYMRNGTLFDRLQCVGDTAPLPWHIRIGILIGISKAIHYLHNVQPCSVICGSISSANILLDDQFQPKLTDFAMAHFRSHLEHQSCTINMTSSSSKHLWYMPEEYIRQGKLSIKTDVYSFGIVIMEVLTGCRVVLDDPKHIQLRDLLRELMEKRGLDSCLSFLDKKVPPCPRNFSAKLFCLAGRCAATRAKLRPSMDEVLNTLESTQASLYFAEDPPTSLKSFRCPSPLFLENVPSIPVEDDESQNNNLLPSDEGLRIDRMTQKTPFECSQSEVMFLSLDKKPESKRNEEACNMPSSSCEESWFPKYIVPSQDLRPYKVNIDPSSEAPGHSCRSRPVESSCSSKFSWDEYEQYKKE
Put plainly: IRAK3 biochemical binding assay (LanthaScreen Eu Kinase Binding, TR-FRET). On the procedure: Example B3. IRAK3 Biochemical Binding Assay
The LanthaScreen® Eu Kinase Binding assay was performed as described by the vendor (ThermoFisher Scientific Waltham, MA). Briefly, 100× solutions of compound were prepared in DMSO via serial dilution of the 10 mM stock solution in a 384-well reagent plate using 3-fold intervals to achieve final concentrations. 1 μL of the compound dilution series were added to the corresponding wells of a 384-well reagent plate containing 32.3 μL of 1× buffer (50 mM HEPES pH 7.4, […], 1 mM EGTA, 0.01% Brij-35). 5 μL of the buffer diluted compounds were transferred to the corresponding wells of a 384-well assay plate. 5 μL of 3× tracer was transferred to each well of the assay plate for a final tracer concentration of 10 nM. Finally, 5 μL of the 3×Eu-Anti-GST and IRAK3 mix was transferred to each well for a final concentration of 2 nM and 10 nM respectively. Reactions were allowed to incubate for 1 hour at room temperature. TR-FRET signal of the interaction (λex340/λem 665/λem 615) was read at room temperature with a delay time of 100 ρs and an integration time of 200 ρs using an Envision plate reader. Background corrected emission signal ratios at each compound concentration were used to calculate percentage of inhibition (% Inhibition). Plots of % Inhibition versus inhibitor concentrations were fit according to a dose-response equation (Eq. 1) to generate IC50 and Hill slope values using Dotmatics software (Dotmatics, Bishops Stortford, Hertfordshire, England).
Using these assays, IC50, Dmax, EC50, and DC50 values of the following compounds were determined. Dmax is defined as the maximum percent degradation achieved and DC50 is the concentration at which 50% degradation is achieved.
(In general: Time-resolved FRET reads energy transfer from a long-lived donor to a nearby acceptor.)

On to `CS(=O)(=O)c1cccc(-c2cnc(Nc3cnn(C4CCN(CCN5CCN(c6ccc(C7CCC(=O)NC7=O)cc6)CC5)CC4)c3)c3nccn23)c1` (stereo not shown) [Compound 86, 3-(4-(4-(2-(4-(4-((5-(3-(methylsulfonyl)phenyl)imidazo[1,2-a]pyrazin-8-yl)amino)-1H-pyrazol-1-yl)piperidin-1-yl)ethyl)piperazin-1-yl)phenyl) piperidine-2,6-dione], for which the concentration for half-maximal inhibition (IC50) was 380 nM. This lies in the sub-micromolar range. In the case of `COc1ccc(-c2cnc(Nc3cnn(C4CCN(CCN5CCN(c6ccc(C7CCC(=O)NC7=O)cc6)CC5)CC4)c3)c3nccn23)cc1` (stereo not shown) [Compound 87, 3-(4-(4-(2-(4-(4-((5-(4-methoxyphenyl)imidazo[1,2-a]pyrazin-8-yl)amino)-1H-pyrazol-1-yl)piperidin-1-yl)ethyl)piperazin-1-yl)phenyl) piperidine-2,6-dione] it was 4 nM. In the case of `O=C1CCC(c2ccc(N3CCN(CCN4CCC(n5cc(Nc6ncc(-c7ccccc7)n7ccnc67)cn5)CC4)CC3)cc2)C(=O)N1` (stereo not shown) [Compound 88, 3-(4-(4-(2-(4-(4-((5-phenylimidazo[1,2-a]pyrazin-8-yl)amino)-1H-pyrazol-1-yl)piperidin-1-yl)ethyl)piperazin-1-yl)phenyl) piperidine-2,6-dione] it was 16 nM; in that of `Cc1cc(-c2cnc(Nc3cnn([C@H]4CC[C@H](CCN5CCC(c6ccc(C7CCC(=O)NC7=O)cc6)CC5)CC4)c3)c3nccn23)c(F)cc1F` (stereo partly drawn) [Compound 95, 3-(4-(1-(2-((trans)-4-(4-((5-(2,4-difluoro-5-methylphenyl)imidazo[1,2-a]pyrazin-8-yl)amino)-1H-pyrazol-1-yl)cyclohexyl)ethyl)piperidin-4-yl)phenyl) piperidine-2,6-dione], 15 nM. In turn, `Cc1cc(-c2cnc(Nc3cnn([C@H]4C[C@@H](CCN5CCN(c6ccc(C7CCC(=O)NC7=O)cc6)CC5)C4)c3)c3nccn23)c(F)cc1F` (stereo partly drawn) [Compound 96, 3-(4-(4-(2-((cis)-3-(4-((5-(2,4-difluoro-5-methylphenyl)imidazo[1,2-a]pyrazin-8-yl)amino)-1H-pyrazol-1-yl)cyclobutyl)ethyl)piperazin-1-yl)phenyl)piperidine-2,6-dione] gave a half-inhibitory concentration (IC50) of 0.22 nM. With `Cc1cc(-c2cnc(Nc3cnn(C4CCN(CCN5CC6(C5)CN(c5ccc(C7CCC(=O)NC7=O)cc5)C6)CC4)c3)c3nccn23)c(F)cc1F` (stereo not shown) [Compound 97, 3-(4-(6-(2-(4-(4-((5-(2,4-difluoro-5-methylphenyl)imdazo [1,2-a]pyrazin-8-yl)amino)-1H-pyrazol-1-yl)piperidin-1-yl)ethyl)-2,6-diazaspiro[3.3]heptan-2-yl)phenyl) piperidine-2,6-dione], the half-maximal inhibitory concentration (IC50) is 1.3 nM. For the compound `CN1CCOc2cc(F)c(-c3cnc(Nc4cnn(C5CCN(CCN6CCN(c7ccc(C8CCC(=O)NC8=O)cc7)CC6)CC5)c4)c4nccn34)cc21` (stereo not shown) [Compound 98, 3-(4-(4-(2-(4-(4-((5-(7-fluoro-4-methyl-3,4-dihydro-2H-benzo[b][1,4]oxazin-6-yl)imidazo[1,2-a]pyrazin-8-yl)amino)-1H-pyrazol-1-yl)piperidin-1-yl)ethyl)piperazin-1-yl)phenyl) piperidine-2,6-dione], the IC50 was found to be 0.08 nM. Compound `Cc1cc(-c2cnc(Nc3cnn([C@H]4C[C@H](CN5CCN(c6ccc(C7CCC(=O)NC7=O)cc6)CC5)C4)c3)c3nccn23)c(F)cc1F` (stereo partly shown) [Compound 99] returned an IC50 of 0.44 nM. In turn, `O=C1CCC(c2ccc(N3CCN(CC[C@H]4CC[C@H](n5cc(Nc6ncc(C78CCCC7C8)n7ccnc67)cn5)CC4)CC3)cc2)C(=O)N1` (stereo partly shown) [Compound 100] returned a concentration for half-maximal inhibition (IC50) of 4 nM.

Take `Cc1cc(-c2cnc(Nc3cnn([C@H]4CC[C@@H](CCN5CC6(C5)CN(c5ccc(C7CCC(=O)NC7=O)cc5)C6)CC4)c3)c3nccn23)c(F)cc1F` (stereo partly shown) [Compound 101]: the half-inhibitory concentration (IC50) stood at 7.6 nM. This IC50 is about 1.9-fold higher than that of the compound before. As for `Cc1cc(-c2cnc(Nc3cnn(C4CCN(CCN5CCN(c6ccc(-n7ccc(=O)[nH]c7=O)cc6)CC5)CC4)c3)c3nccn23)c(F)cc1F` [Compound 102, 1-(4-(4-(2-(4-(4-((5-(2,4-difluoro-5-methylphenyl)imdazo [1,2-a]pyrazin-8-yl)amino)-1H-pyrazol-1-yl)piperidin-1-yl)ethyl)piperazin-1-yl)phenyl)pyrimidine-2,4(1H,3H)-dione], the IC50 turned out to be 0.8 nM. In the case of `Cc1cc(-c2ccc(Nc3cnn([C@H]4CC[C@@H](CCN5CCN(c6ccc(C7CCC(=O)NC7=O)cc6)CC5)CC4)c3)c3nccn23)c(F)cc1F` (stereo partly shown) [Compound 103] it was 2 nM; in that of `Cc1cc(-c2cnc(Nc3cnn([C@H]4CC[C@H](CCN5CC6(C5)CN(c5ccc(C7CCC(=O)NC7=O)cc5)C6)CC4)c3)c3nccn23)c(F)cc1F` (stereo partly shown) [Compound 104], 0.3 nM. In the case of `Cc1cc(-c2cnc(Nc3cnn([C@H]4CC[C@H](CCN5CCN(c6ccc7c(C8CCC(=O)NC8=O)nn(C)c7c6)CC5)CC4)c3)c3nccn23)c(F)cc1F` (stereo partly drawn) [Compound 105, 3-(6-(4-(2-((trans)-4-(4-((5-(2,4-difluoro-5-methylphenyl)imidazo[1,2-a]pyrazin-8-yl)amino)-1H-pyrazol-1-yl)cyclohexyl)ethyl)piperazin-1-yl)-1-methyl-1H-indazol-3-yl)piperidine-2,6-dione] it was 0.18 nM; in that of `Cc1cc(-c2ccc(Nc3cnn([C@H]4CC[C@H](CCN5CCN(c6ccc(C7CCC(=O)NC7=O)cc6)CC5)CC4)c3)c3nccn23)c(F)cc1F` (stereo partly shown) [Compound 108], 2.6 nM. In turn, `Cc1cc(-c2cnc(Nc3cnn(C4CCN(CCN5CCC(n6cc(C7CCC(=O)NC7=O)cn6)CC5)CC4)c3)c3nccn23)c(F)cc1F` (stereo not shown) [Compound 109, 3-(1-(1-(2-(4-(4-((5-(2,4-difluoro-5-methylphenyl)imdazo [1,2-a]pyrazin-8-yl)amino)-1H-pyrazol-1-yl)piperidin-1-yl)ethyl)piperidin-4-yl)-1H-pyrazol-4-yl)piperidine-2,6-dione] displayed an IC50 of 0.26 nM.

With `Cc1cc(-c2cnc(Nc3cnn(C4CCN(CCN5CCN(c6ccc(-n7cc(F)c(=O)[nH]c7=O)cc6)CC5)CC4)c3)c3nccn23)c(F)cc1F` [Compound 110, 1-(4-(4-(2-(4-(4-((5-(2,4-difluoro-5-methylphenyl)imdazo [1,2-a]pyrazin-8-yl)amino)-1H-pyrazol-1-yl)piperidin-1-yl)ethyl)piperazin-1-yl)phenyl)-5-fluoropyrimidine-2,4(1H,3H)-dione], the concentration for half-maximal inhibition (IC50) amounted to 0.86 nM. Take `Cn1nc(C2CCC(=O)NC2=O)c2cccc(N3CCN(CCN4CCC(n5cc(Nc6ncc(C7CC7)n7ccnc67)cn5)CC4)CC3)c21` (stereo not shown) [Compound 113, 3-(7-(4-(2-(4-(4-((5-cyclopropylimidazo[1,2-a]pyrazin-8-yl)amino)-1H-pyrazol-1-yl)piperidin-1-yl)ethyl)piperazin-1-yl)-1-methyl-1H-indazol-3-yl)piperidine-2,6-dione]: the IC50 was found to be 3.2 nM.

In turn, `O=C1CCC(c2ccc(N3CCN(CCN4CCC(n5cc(Nc6ncc(-c7cnn8c7CCCC8)n7ccnc67)cn5)CC4)CC3)cc2)C(=O)N1` (stereo not shown) [Compound 114, 3-(4-(4-(2-(4-(4-((5-(4,5,6,7-tetrahydropyrazolo[1,5-a]pyridin-3-yl)imidazo[1,2-a]pyrazin-8-y1)amino)-1H-pyrazol-1-yl)piperidin-1-yl)ethyl)piperazin-1-y1)phenyl)piperidine-2,6-dione] yielded an IC50 of 0.92 nM.
